Experimental data as given in patent US20030040515A1, “Regulation of platelet adhesion and aggregation” (priority 2002, published 2003).

Assays:
[1] = tested on: vWF depolymerizing activity of BAECcm; experiment: Inhibitor profile of the vWF depolymerizing activity of BAEC conditioned medium; assay type: biochemical; details: measured by agarose gel electrophoresis or collagen binding; BAECcm treated with agent
[2] = pH 8; cited from earlier work
[3] = biological target: T1, purified human vWF (Homo sapiens, UniProt P04275+P07996); experiment: ELISA of salt-resistant complexes between TSP-1 and vWF; assay type: binding
T1 construct: Purified vWF from human plasma was obtained from the Baker Medical Research Institute; TSP-1 was purified to homogeneity from pooled outdated human platelet concentrates; tissue Baker Medical Research Institute, Melbourne (vWF); host or cells: human plasma (vWF); human platelet concentrates (TSP-1)
Description: The first step in reduction of a disulfide bond is nucleophilic attack on the substrate disulfide bond by a reductant thiol which results in formation of a disulfide-linked complex between the substrate and the reductant. Release of the reductant from the complex requires nucleophilic attack on the disulfide linkage by another thiol, usually of the reductant. We reasoned that N-ethylmaleimide (NEM, Sigma, St. Louis, Mo.) might trap intermediate covalent complexes of TSP-1 and vWF by blocking the TSP-1 thiol responsible for separating TSP-1 and vWF. Maleimides react rapidly and specifically with cysteine thiols at neutral pH. This prediction was tested by measuring formation of salt-resistant complexes between TSP-1 and vWF and the effect of the thiol-blocking reagent, NEM, on complex formation.
Purified vWF from human plasma was obtained from the Baker Medical Research Institute, Melbourne and was purified according to Booth et at. (1984). The vWF (100 μl of 5 μg per ml in 0.1M NaHCO3, pH 8.3 buffer) was adsorbed to Nunc PolySorp 96 well plates overnight at 4° C. in a humid environment. […] Wells were washed three times with Hepes buffer and the peroxidase detected as described previously (Favaloro et al., 1991). […]

[4] = biological target: purified vWF (Homo sapiens, UniProt P04275); experiment: Effect of purified reductants or thiol reagents on the average multimer size of purified vWF (agarose gel electrophoresis); assay type: biochemical; parameters: Purified vWF from human plasma was obtained from the Baker Medical Research Institute; tissue Baker Medical Research Institute, Melbourne; host or cells: human plasma; details: incubation of vWF with IAM or NEM alone
[5] = biological target: T2, plasma vWF (Mus musculus, UniProt Q8CIZ8); experiment: Reduction in the average multimer size of vWF by TSP-1 in vivo; details: Balb c mice; 1 mg per kg intraperitoneal; plasma 24 hours later; p<0.05 vs buffer vehicle
T2 construct: from tissue; host or cells: plasma of Balb c mice (in vivo)
Description: The ability of TSP-1 to reduce the average multimer size of vWF in vivo was examined by administering TSP-1 to mice via intraperitoneal injection and measuring the consequence for the average multimer size of plasma vWF. Balb c mice (7 to 9 weeks of age) were administered either buffer vehicle (n=4) or 1 mg per kg purified human platelet TSP-1 (n=4) via 0.1 ml intraperitoneal injections. There were 2 male and 2 female mice in each group. Blood was collected by cardiac puncture into EDTA 24 hours later and the plasma was analyzed in triplicate for vWF antigen levels and collagen binding affinity.

[6] = biological target: T3, vWF (Homo sapiens, UniProt P04275); experiment: Reduction in average multimer size of vWF in TTP plasma (agarose gel, collagen binding/vWF antigen); assay type: biochemical; details: plasma from a patient with TTP
T3 construct: from tissue; host or cells: plasma of a TTP patient (vWF); human platelet concentrates (TSP-1)
Description: TTP plasma was incubated with 20 mM Hepes, 0.14M NaCl, 1 mM CaCl2, 1 mM MgCl2, pH 7.4 buffer, conditioned media of HMEC-1 cells or the Hepes buffer containing TSP-1 for 1 or 24 hours at 37° C. Aliquots of the reactions were diluted 10-fold in the Hepes buffer and assayed for collagen binding affinity and vWF antigen as described by Favaloro et al. (1991). On some occasions, aliquots of the reactions were resolved on 1% agarose gel electrophoresis (Ruggeri and Zimmerman, 1980), transferred to PVDF membrane (DuPont NEN, Boston, Mass.), blotted with 2 μg per ml of horse radish peroxidase conjugated anti-vWF polyclonal antibodies (DAKO Corporation, Carpinteria, Calif.) and visualized using chemiluminescence (DuPont NEN, Boston, Mass.).
TSP-1 is a major component of platelet α-granules which is secreted upon platelet activation and aggregation. TSP-1 was purified to homogeneity from pooled outdated human platelet concentrates (Murphy-Ullrich and Mosher. 1985; Hogg et al., 1997) and tested for vWF reductase activity. Buffers containing 0.1 mM CaCl2 were used throughout the chromatographic purification of TSP1. […] In particular, the very large multimers were lost (see bracket in FIG. 3A). […] TSP-1-mediated reduction in vWF multimer size was concentration- and time-dependent (FIG. 3B). Three different preparations of platelet TSP-1 had the same vWF reducing activity (not shown). It is noteworthy that the molar ratio of TSP-1 to vWF influenced the extent of reduction in vWF multimer size (FIG. 3B). The vWF reductase activity in endothelial cell conditioned medium is inhibited by EDTA. In accordance with this observation, chelation of Ca^2+ with EDTA ablated the vWF reductase activity of TSP-1 (not shown).

T2 sequence (Q8CIZ8 764-2813 limits assumed): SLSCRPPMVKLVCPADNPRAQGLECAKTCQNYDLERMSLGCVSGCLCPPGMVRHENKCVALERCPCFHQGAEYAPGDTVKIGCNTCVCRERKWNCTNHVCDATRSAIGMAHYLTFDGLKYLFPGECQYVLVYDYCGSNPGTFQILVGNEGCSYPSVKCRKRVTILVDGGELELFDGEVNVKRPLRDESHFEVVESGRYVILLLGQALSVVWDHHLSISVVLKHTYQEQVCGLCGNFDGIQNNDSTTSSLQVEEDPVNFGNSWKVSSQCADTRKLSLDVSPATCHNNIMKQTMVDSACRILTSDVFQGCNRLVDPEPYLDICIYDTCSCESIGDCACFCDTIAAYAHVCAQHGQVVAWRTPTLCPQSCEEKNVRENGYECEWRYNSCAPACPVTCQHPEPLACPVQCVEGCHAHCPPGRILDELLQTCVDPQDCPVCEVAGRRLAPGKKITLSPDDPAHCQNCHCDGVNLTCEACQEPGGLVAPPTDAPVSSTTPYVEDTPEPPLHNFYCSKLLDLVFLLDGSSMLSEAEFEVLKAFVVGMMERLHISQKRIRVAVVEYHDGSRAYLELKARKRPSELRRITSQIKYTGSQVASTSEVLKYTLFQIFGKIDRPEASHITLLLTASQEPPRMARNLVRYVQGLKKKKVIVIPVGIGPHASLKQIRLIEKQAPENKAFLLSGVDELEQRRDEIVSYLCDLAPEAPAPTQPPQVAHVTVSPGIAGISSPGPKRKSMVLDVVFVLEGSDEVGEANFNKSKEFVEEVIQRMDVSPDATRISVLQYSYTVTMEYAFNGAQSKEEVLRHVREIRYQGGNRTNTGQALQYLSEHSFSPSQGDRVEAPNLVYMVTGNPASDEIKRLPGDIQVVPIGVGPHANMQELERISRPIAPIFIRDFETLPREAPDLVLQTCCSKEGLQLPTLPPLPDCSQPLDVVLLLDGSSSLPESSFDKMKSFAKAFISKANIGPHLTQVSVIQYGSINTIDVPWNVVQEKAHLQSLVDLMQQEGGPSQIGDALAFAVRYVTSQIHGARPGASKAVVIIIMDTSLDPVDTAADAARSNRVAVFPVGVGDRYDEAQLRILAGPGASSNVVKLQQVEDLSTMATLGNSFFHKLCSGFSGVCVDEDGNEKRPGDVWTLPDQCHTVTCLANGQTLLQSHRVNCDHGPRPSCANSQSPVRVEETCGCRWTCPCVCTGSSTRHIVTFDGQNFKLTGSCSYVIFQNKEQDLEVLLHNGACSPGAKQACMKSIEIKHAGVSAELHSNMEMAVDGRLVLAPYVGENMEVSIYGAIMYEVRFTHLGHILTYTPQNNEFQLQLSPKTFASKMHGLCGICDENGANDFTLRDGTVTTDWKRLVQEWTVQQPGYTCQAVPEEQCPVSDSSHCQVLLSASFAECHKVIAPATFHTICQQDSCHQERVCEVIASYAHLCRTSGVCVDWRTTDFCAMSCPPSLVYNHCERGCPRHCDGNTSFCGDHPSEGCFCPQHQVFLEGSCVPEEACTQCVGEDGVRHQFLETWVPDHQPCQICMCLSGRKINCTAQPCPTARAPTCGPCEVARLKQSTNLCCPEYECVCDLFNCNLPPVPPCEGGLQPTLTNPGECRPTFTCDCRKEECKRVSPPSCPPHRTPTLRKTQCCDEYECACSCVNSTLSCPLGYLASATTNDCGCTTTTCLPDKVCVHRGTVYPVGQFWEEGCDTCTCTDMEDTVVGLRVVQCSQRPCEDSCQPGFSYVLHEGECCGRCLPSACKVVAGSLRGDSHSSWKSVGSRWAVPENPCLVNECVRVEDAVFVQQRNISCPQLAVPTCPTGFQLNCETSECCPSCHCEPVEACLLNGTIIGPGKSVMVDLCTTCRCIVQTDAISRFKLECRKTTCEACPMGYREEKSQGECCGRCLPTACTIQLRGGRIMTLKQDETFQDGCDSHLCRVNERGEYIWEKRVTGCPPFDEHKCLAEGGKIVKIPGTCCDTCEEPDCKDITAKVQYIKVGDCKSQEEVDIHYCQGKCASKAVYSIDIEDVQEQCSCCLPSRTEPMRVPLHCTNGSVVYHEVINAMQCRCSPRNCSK

Row | Molecule | effect on vWF depolymerizing activity of BAECcm [1] | second order rate constant of reaction with free thiols [2] | fold more TSP-1 bound to vWF in the presence of NEM ([3]; 5 or 20 mM NEM, TSP-1 0 to 10 μg per ml, 30 minutes at room temperature, 1M NaCl wash) | effect on average multimer size of vWF [4] | CBA/vWFAg (average multimer size of plasma vWF) [5] | binding of TSP-1 to wells not coated with vWF ([3]; 10 μg per ml TSP-1, wells blocked with BSA) | effect on average multimer size of vWF ([6]; 37° C., agarose gel electrophoresis) | effect on affinity of vWF for collagen ([6]; collagen binding relative to vWF antigen)
1 | CCN1C(=O)C=CC1=O [NEM, N-ethylmaleimide] | inactivated | ~10^4 M^−1s^−1 | Up to 8 fold | did not have any discernible effect | – | – | – | –
2 | thrombospondin-1 [TSP-1] | – | – | – | – | 0.83±0.05 | no binding | reduced the average multimer size of vWF | decrease in affinity of vWF for collagen
